Several values for one entry are separate records, joined by “and”; a condition that tells them apart may be missing. Equal values may be shown once. Entries after “also recorded” stand apart in the source; their conditions may differ.
Key:
CAII [1] = molecular target: T1, CAII (Homo sapiens, UniProt P00918); assay: Single shot screen of chemoproteomic probes, intact protein LC-MS; assay type: binding; design: purchased Sigma Aldrich C6624-500UG; host or cells: E. coli; conditions: 1 μM CAII, 50 μM SF, 4 °C, 24 h
Text: Hits from the CAII screen were progressed to chemoproteomic profiling to determine cellular target engagement and to measure their off-target profiles. SFs 2d and 2e were functionalized with an alkyne handle at the linking amide group to give probes 2j and 2k. A structurally similar negative control was also designed by substitution of the sulfonamide for a methoxy group, 2l (Figure 4a). […] The proteins engaged by these three probes were subsequently studied in HEK293T cells. […]
6.1. Single shot screen of chemoproteomic probes against CAII
The (synthesized and purified) active probes 2j, and 2k, as well as negative control 2l, were plated into a Greiner 384 white low volume plate from a 10 mM source in DMSO. Purified CAII diluted from original stock into a buffer made up of HEPES (pH 7.5, 25 mM) and NaCl (50 mM) in distilled MS-grade water (15 µL per well) was subsequently added across the plate. Final concentrations: 1 µM protein; 50 µM SF. The plate was sealed, centrifuged (1 min, 1000 rpm), incubated at 4 °C for 24 h, and subsequently analyzed by intact protein LC-MS. Modification yields were measured as 78% for 2j and 95% for 2k.
6.2. Chemoproteomics workflow […]
Chemoproteomics workflow: […]
Samples were incubated with acetylated NeutrAvidin agarose slurry (100 µL) (pre-washed three times with 0.2% SDS in HEPES (50 mM, pH 8.0)) on a combinatorial microlute plate (Porvair, 240002) for 2 h. The plate was centrifuged (1 min, 700 g) to remove supernatants.
The beads were washed three times with lysis buffer and 0.2% SDS in HEPES (50 mM, pH 8.0). The proteins were digested on-bead overnight at 37 °C with LysC (60 μL, 0.004 μg/μL) in HEPES (50 mM, pH 8.0). The supernatants were collected (1 min, 700 g) on a fresh plate and trypsin (30 μL, 0.006 μg/μL) in HEPES (50 mM, pH 8.0) was added to each sample. The samples were incubated for 4 h at 37 °C and acidified with 20% formic acid (10 μL).
The peptide samples were cleaned-up using C18 96-well plate (BioPureSPE Macro 96-Well, 100 mg PROTO C18, The Nest Group). The wells were conditioned with acetonitrile (300 μL) (centrifuged for 1 min at 50 g) and equilibrated twice with 0.1% TFA (300 μL) (centrifuged for 1 min at 150 g). 0.1% TFA (100 μL) was added to digest samples, and these were subsequently loaded on the plate (centrifuged for 1 min at 150 g). The samples were washed twice with 0.1% TFA (200 μL) (centrifuged for 1 min at 150 g). The plate was centrifuged once more at 200 g for 1 min. The peptides were eluted in two steps with 0.1% TFA (150 μL) in 50% acetonitrile

HEK293T cells = assay: Chemoproteomic profiling, proteins enriched by alkyne probes; assay type: cell-based, human; conditions: 10 μM probe, 1 h; log2 ratio ≥0.58, p-value ≤0.05, #unique peptides ≥2
Experimental: (§1) HEK293T cells were treated for 1 h with probes 2j, 2k, or 2l (10 μM) or the DMSO vehicle. Competition-based experiments were also conducted where cells were pretreated with parent hits 2d (40 μM) or 2e (40 μM) for 1 h, before the addition of alkyne-containing probes 2j (10 μM) or 2k (10 μM), respectively. Following incubation, treated cells were lysed and conjugated with biotin-azide by Cu-click, and biotinylated proteins were enriched using NeutrAvidin beads. Enriched proteins were digested with LysC and trypsin, prior to analysis by LC–MS/MS (Figure 4b). […]
(§2) 6.2. Chemoproteomics workflow
(§3) Acetylation of NeutrAvidin agarose slurry:
NeutrAvidin agarose slurry (10 mL) (Thermo Fisher Scientific, 29204) was centrifuged (2 min, 2000 rpm) prior to removal of the supernatant. The beads were washed three times with PBS. PBS (9 mL) and Sulfo-NHS-acetate (482 μL, 400 mM in DMSO) (Thermo Fisher Scientific, 26777) were added, the beads were incubated at room temperature for 30 min on a falcon tube roller, and then centrifuged (2 min, 2000 rpm). Supernatant was removed and the incubation step with freshly made NHS-acetate was repeated. The reaction was quenched by adding Tris (2 mL, 1 M, pH 7.5). The beads were washed once with PBS and twice with 20% EtOH. 20% EtOH (5 mL) was added, and the beads were stored at 4 °C.
Chemoproteomics workflow:
HEK293T cell line (human origin, The Francis Crick Institute cell service) was used for this study. The cells were maintained at 37 °C with 5% CO2 in DMEM media supplemented with 10% fetal bovine serum and 1% L-Glutamine–Penicillin–Streptomycin solution (200 mM L-glutamine, 10,000 U/mL penicillin and 10 mg/mL streptomycin).
HEK293T cells were treated in triplicate with the parent compounds 2d and 2e (40 μM final concentration) or DMSO vehicle for 1 h at 37 °C in serum free media followed by a 1 h treatment with the probes 2j, 2k and 2l (10 μM final concentration) or DMSO vehicle.
(§4) Media was removed and cells were washed with PBS. […] Protein concentration of each lysate was determined using a BCA assay (Thermo Fisher Scientific, 23227). […]

CAII [2] = molecular target: T1, CAII; assay: Chemoproteomic target engagement of CAII in cells; assay type: cell-based; conditions: HEK293T cells, 10 μM probe, 1 h, vs DMSO
Experimental: as §1, §2, §3
NeutrAvidin agarose slurry (10 mL) (Thermo Fisher Scientific, 29204) was centrifuged (2 min, 2000 rpm) prior to removal of the supernatant. The beads were washed three times with PBS. PBS (9 mL) and Sulfo-NHS-acetate (482 μL, 400 mM in DMSO) (Thermo Fisher Scientific, 26777) were added, the beads were incubated at room temperature for 30 min on a falcon tube roller, and then centrifuged (2 min, 2000 rpm). Supernatant was removed and the incubation step with freshly made NHS-acetate was repeated. The reaction was quenched by adding Tris (2 mL, 1 M, pH 7.5). […]
as §4

BCL6 BTB/POZ domain = BCL6 BTB/POZ domain (Homo sapiens, UniProt P41182, C67R/C84N/C8Q); assay: Conventional differential scanning fluorimetry (DSF); assay type: binding; design: hBCL6-Flag 3Cmut (5-129) produced in house; FLAG (C); made in house
Experimental: We subsequently analyzed protein-fragment interactions using differential scanning fluorimetry (DSF) to explore the impact of these binding events on protein stability.[45] […] […]; this illustrates the impact of covalent modification on protein–ligand binding. […]
8.2. Conventional differential scanning fluorimetry (DSF)
BCL6-SF covalent complex preparation:
SFs 2f–i, 2p, 2q, 2s, and 2t in DMSO-d 6 (200 mM stock) or pure DMSO-d 6 were added to crystallizable BCL6 BTB/POZ domain (10 µM) in 20 mM Tris pH 8.5 and 200 mM NaCl. The reactions were incubated at 20 °C for 6 h (meta-substituted benzamide fragments) or 24 h (azetidinyl/piperidinyl fragments). Final concentrations: 10 µM protein, 500 µM SF, DMSO 0.25% v/v in 200 µL. Unreacted compound and DMSO-d 6 were removed by buffer-exchanging protein solutions into 20 mM Tris pH 8.5, 200 mM NaCl and 5% v/v glycerol inside Vivaspin 500 PES Centrifugal Concentration units. The protein was concentrated to 0.6–1.3 mg/mL within the units, according to UV-vis absorption spectrophotometry via a Nanodrop ND-1000 instrument. Protein was flash frozen using a dry ice/ethanol bath prior to […]
Differential scanning fluorimetry assay:
GSK137 (40 mM stock) or pure DMSO-d 6 were added to crystallizable BCL6 BTB/POZ domain (11 µM) in 20 mM Tris pH 8.5, 200 mM NaCl and 5% v/v glycerol to give solutions containing: 11 µM protein, DMSO 0.63% v/v and 222 µM GSK137 (where applicable).
Concentrated protein-SF complexes were also thawed and diluted to 11 µM in 20 mM Tris pH 8.5, […] and 5% v/v glycerol.
SYPRO Orange dye (Invitrogen S6650) in extra dilution buffer (50×, eq. 1% v/v DMSO) was added to give assay-ready solutions with final concentrations: 10 µM protein, SYPRO 5×, DMSO 0.1% v/v in volume 80 µL for the protein-SF covalent complexes or 10 µM protein, SYPRO 5×, DMSO 0.6% v/v in volume 100 µL with and without 200 µM GSK137.
Each solution was aliquoted (3 × 20 µL) into wells of an opaque 384-well PCR microplate (Axygen PCR-384-LC480-W) and coated with silicone oil DC 200 (5 µL; Fluka Chemicals 85413). The microplate was centrifuged (1 min, 200 g) prior to insertion into a Fluodia T70 spectrophotometer (Photal Instruments). The fluorescence intensity was detected (emission wavelength: […]) as the plate instrument interior was heated from 27–75 °C using a temperature stepping mode (waiting time before measurement: 60 s; fluorescence measurement interval: 45 s). The approximate temperature gradient was 0.5 °C min-1.
The fluorescence intensity data from the individual replicates of each sample type were normalized and identically truncated within GraphPad Prism 5.0.4.11 These values were subsequently fitted to equation (4) corresponding to a Boltzmann sigmoid in order to obtain the melting temperature (“V50”; T m) of the protein:
Y=BOTTOM+((TOP+BOTTOM)/(1+exp((V50–X)/SLOPE))) (4)
The three obtained T m values were averaged to give a final T m value in each case. The normalized fluorescence data for the three replicates of each sample were averaged to yield a single dataset for each case, which were then plotted in GraphPad Prism 5.0.4 to give the plots shown in the manuscript.11
Table S9. Thermal melting temperatures of unmodified and covalently modified BCL6 BTB/POZ domain as determined by differential scanning fluorimetry measurements.
The arithmetic mean and standard deviation from three replicates are shown.
Hit Chemotype Protein Species Tm / °C ΔT m / °C […]
meta-Substituted Benzamide BCL6 + 2g 70.4 ± 0.3 +11.7
Azetidinyl Fragments BCL6 + 2h 55.5 ± 0.1 −3.2 […]
8.3. Protocol for kinetic analyzes (BCL6)
The (resynthesized and purified) SF hits (2f–i) were plated into seven Greiner 384 white low volume plate from a 10 mM source in DMSO. Differing volumes were added such that the final concentrations for each compound would be: 100, 50, 20, 10, or 5 µM after adding 15 µL of protein stock solution per well. […]

BCL6 = test system: BCL6; design: method as in PMID 34274316; conditions: cited from earlier work

C#CCN(Cc1cccc(S(N)(=O)=O)c1)C(=O)Cc1ccc(S(=O)(=O)F)cc1 [2j]
covalent modification of purified CAII (CAII [1]): covalently modified CAII | modification yield (CAII [1]): 78% | number of proteins enriched by comparison to DMSO control (HEK293T cells): 523 | enrichment of CAII (CAII [2]): some enrichment

C#CCN(CCc1ccc(S(N)(=O)=O)cc1)C(=O)Cc1ccc(S(=O)(=O)F)cc1 [2k]
covalent modification of purified CAII (CAII [1]): covalently modified CAII | modification yield (CAII [1]): 95% | number of proteins enriched by comparison to DMSO control (HEK293T cells): 501 | enrichment of CAII (CAII [2]): some enrichment

C#CCN(Cc1cccc(OC)c1)C(=O)Cc1ccc(S(=O)(=O)F)cc1 [2l]
covalent modification of purified CAII (CAII [1]): Negligible modification; also recorded: did not | number of proteins enriched by comparison to DMSO control (HEK293T cells): 447

Cc1ncccc1[C@H]1C[C@@H](c2cccc3nc(N)ccc23)Nc2c(F)cnn21 [GSK137, reference compound]
Tm (BCL6 BTB/POZ domain; 10 μM protein, covalent complex (500 μM SF, 6 or 24 h) or 200 μM GSK137, mean ± SD, three replicates): > 72 °C | ΔTm (BCL6 BTB/POZ domain; relative to unmodified BCL6): > 12.3 °C and ~12 °C | biochemical pIC50 (BCL6): 8
